SMILES | melting point
O=c1cc(-c2ccc(-c3nnc(-c4ccccc4F)o3)cc2)oc2ccccc12 [Compound 6, 2-(4-(5-(2-Fluorophenyl)-1,3,4-oxadiazol-2-yl)phenyl)-4H-chromen-4-one] | 291 to 292 °C
Cc1ccccc1-c1nnc(-c2ccc(-c3cc(=O)c4ccccc4o3)cc2)o1 [Compound 9, 2-(4-(5-(o-Tolyl)-1,3,4-oxadiazol-2-yl)phenyl)-4H-chromen-4-one] | 260 to 261 °C
Cc1cccc(-c2nnc(-c3ccc(-c4cc(=O)c5ccccc5o4)cc3)o2)c1 [Compound 8, 2-(4-(5-(m-Tolyl)-1,3,4-oxadiazol-2-yl)phenyl)-4H-chromen-4-one] | 264 to 265 °C
Cc1ccc(-c2nnc(-c3ccc(-c4cc(=O)c5ccccc5o4)cc3)o2)cc1 [Compound 7, 2-(4-(5-(p-Tolyl)-1,3,4-oxadiazol-2-yl)phenyl)-4H-chromen-4-one] | 270 to 271 °C
O=c1cc(-c2ccc(-c3nnc(-c4ccc(Cl)cc4)o3)cc2)oc2ccccc12 [Compound 1, 2-(4-(5-(4-Chlorophenyl)-1,3,4-oxadiazol-2-yl)phenyl)-4H-chromen-4-one] | 288 to 289 °C
O=c1cc(-c2ccc(-c3nnc(Cc4ccccc4Cl)o3)cc2)oc2ccccc12 [Compound 3, 2-(4-(5-(2-Chlorobenzyl)-1,3,4-oxadiazol-2-yl)phenyl)-4H-chromen-4-one] | 276 to 277 °C
O=c1cc(-c2ccc(-c3nnc(-c4cccc(F)c4)o3)cc2)oc2ccccc12 [Compound 5, 2-(4-(5-(3-Fluorophenyl)-1,3,4-oxadiazol-2-yl)phenyl)-4H-chromen-4-one] | 294 to 295 °C
O=c1cc(-c2ccc(-c3nnc(-c4cccc(Cl)c4)o3)cc2)oc2ccccc12 [Compound 2, 2-(4-(5-(3-Chlorophenyl)-1,3,4-oxadiazol-2-yl)phenyl)-4H-chromen-4-one] | 282 to 283 °C
O=c1cc(-c2ccc(-c3nnc(-c4ccc(F)cc4)o3)cc2)oc2ccccc12 [Compound 4, 2-(4-(5-(4-Fluorophenyl)-1,3,4-oxadiazol-2-yl)phenyl)-4H-chromen-4-one] | 299 to 300 °C

More lines, now with the values ahead:

melting point | SMILES
288 to 289 °C | O=c1cc(-c2ccc(-c3nnc(-c4ccncc4)o3)cc2)oc2ccccc12 [Compound 18, 2-(4-(5-(Pyridin-4-yl)-1,3,4-oxadiazol-2-yl)phenyl)-4H-chromen-4-one]
296 to 297 °C | O=c1cc(-c2ccc(-c3nnc(-c4cccc([N+](=O)[O-])c4)o3)cc2)oc2ccccc12 [Compound 11, 2-(4-(5-(3-Nitrophenyl)-1,3,4-oxadiazol-2-yl)phenyl)-4H-chromen-4-one]
280 to 281 °C | O=c1cc(-c2ccc(-c3nnc(-c4ccccc4)o3)cc2)oc2ccccc12 [Compound 19, 2-(4-(5-Phenyl-1,3,4-oxadiazol-2-yl)phenyl)-4H-chromen-4-one]
299 to 300 °C | COc1cccc(-c2nnc(-c3ccc(-c4cc(=O)c5ccccc5o4)cc3)o2)c1 [Compound 14, 2-(4-(5-(3-Methoxyphenyl)-1,3,4-oxadiazol-2-yl)phenyl)-4H-chromen-4-one]
307 to 308 °C | COc1ccc(-c2nnc(-c3ccc(-c4cc(=O)c5ccccc5o4)cc3)o2)cc1 [Compound 13, 2-(4-(5-(4-Methoxyphenyl)-1,3,4-oxadiazol-2-yl)phenyl)-4H-chromen-4-one]
304 to 305 °C | O=c1cc(-c2ccc(-c3nnc(-c4ccc([N+](=O)[O-])cc4)o3)cc2)oc2ccccc12 [Compound 10, 2-(4-(5-(4-Nitrophenyl)-1,3,4-oxadiazol-2-yl)phenyl)-4H-chromen-4-one]
270 to 271 °C | O=c1cc(-c2ccc(-c3nnc(-c4ccccn4)o3)cc2)oc2ccccc12 [Compound 16, 2-(4-(5-(Pyridin-2-yl)-1,3,4-oxadiazol-2-yl)phenyl)-4H-chromen-4-one]
280 to 281 °C | O=c1cc(-c2ccc(-c3nnc(-c4cccnc4)o3)cc2)oc2ccccc12 [Compound 17, 2-(4-(5-(Pyridin-3-yl)-1,3,4-oxadiazol-2-yl)phenyl)-4H-chromen-4-one]
286 to 287 °C | COc1ccccc1-c1nnc(-c2ccc(-c3cc(=O)c4ccccc4o3)cc2)o1 [Compound 15, 2-(4-(5-(2-Methoxyphenyl)-1,3,4-oxadiazol-2-yl)phenyl)-4H-chromen-4-one]
287 to 288 °C | O=c1cc(-c2ccc(-c3nnc(-c4ccccc4[N+](=O)[O-])o3)cc2)oc2ccccc12 [Compound 12, 2-(4-(5-(2-Nitrophenyl)-1,3,4-oxadiazol-2-yl)phenyl)-4H-chromen-4-one]

Source: paper PMC6514607, “Synthesis of Chromen-4-One-Oxadiazole Substituted Analogs as Potent β-Glucuronidase Inhibitors” (Molecules, 2019)
